Measured values as given in PubChem BioAssay (NCI).
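Following 48 hours of exposure in 96-well plates, responses at five concentrations were used to interpolate endpoints linearly. Definition used: TGI = concentration required for complete inhibition of growth.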

Legend:
Test in all cases: growth of human tumour cells (NCI), 48 h
[1] = tested on: EKVX NSCLC
[2] = tested on: HOP-62 NSCLC
[3] = tested on: HOP-92 NSCLC
[4] = tested on: HS 578T breast
[5] = tested on: KM12 colon
[6] = tested on: NCI-H226 lung
[7] = tested on: NCI-H23 lung
[8] = tested on: NCI-H460 lung
[9] = tested on: OVCAR-3 ovarian
[10] = tested on: OVCAR-8 ovarian
[11] = tested on: PC-3 prostate
[12] = tested on: SK-MEL-28 melanoma
[13] = tested on: SN12C renal
[14] = tested on: SNB-75 CNS
[15] = tested on: SNB-78 CNS
[16] = tested on: SW-620 colon
[17] = tested on: U251 CNS
[18] = tested on: UACC-257 melanoma
[19] = tested on: UACC-62 melanoma
[20] = tested on: UO-31 renal

Row | SMILES | TGI [1] [µM] | TGI [2] [µM] | TGI [3] [µM] | TGI [4] [µM] | TGI [5] [µM] | TGI [6] [µM] | TGI [7] [µM] | TGI [8] [µM] | TGI [9] [µM] | TGI [10] [µM] | TGI [11] [µM] | TGI [12] [µM] | TGI [13] [µM] | TGI [14] [µM] | TGI [15] [µM] | TGI [16] [µM] | TGI [17] [µM] | TGI [18] [µM] | TGI [19] [µM] | TGI [20] [µM]
1 | COc1c(OC(C)=O)c(OC(C)=O)cc2c1-c1ccc(SC)c(=O)cc1C(NC(C)=O)CC2 (centres undefined) | > 100 | > 100 | > 100 | 0.701 | > 100 | 33.1 | 28.7 | > 56.1 | > 100 | > 100 | > 100 | > 100 | > 100 | 15.3 | > 100 | > 100 | > 42.2 | > 100 | > 74.9 | > 100
2 | CN1C(=O)CSC1=S |  | > 100 | > 100 |  | > 100 | > 100 | > 100 | > 100 | > 100 | > 100 |  | > 100 | > 100 | > 100 | > 100 | > 100 | > 100 | > 100 | > 100 | > 100
3 | CCC(=O)O[C@H]1CC[C@H]2[C@@H]3CCC4=C/C(=N/OC(=O)c5cccc6c(=O)c7ccccc7[nH]c56)CC[C@]4(C)[C@H]3CC[C@]12C | > 100 | > 100 | 74.5 | > 100 | 55.1 | > 100 | > 100 | 54.5 | 38.4 | > 100 | > 100 | > 100 | > 100 | > 100 |  | > 100 | > 100 | > 100 | > 100 | 62.2
4 | CCCCCCOc1ccc(Nc2c(O)c3c(c(O)c2Cl)C(=O)C=CC3=O)cc1 | > 10 | > 8.71 | 7.14 | 8.39 | > 7.66 | > 10 | 4.95 | 6.52 | 4.77 | > 5.31 | > 10 | 3.82 | 4.54 | > 10 |  | 4.73 | > 6.07 | > 8.89 | 7.99 | > 5.81
5 | COC(=O)CC1C=CC(C)(OC)OO1 (centres undefined) | > 100 | > 100 | > 100 | > 100 | > 100 | > 100 | > 100 | 24.4 | > 100 | > 100 | > 100 | > 100 | > 100 | > 100 |  | > 100 | > 100 | > 100 | > 100 | > 100
6 | COC(=O)c1ccccc1Nc1nc(-c2cccs2)nc2cc(OC)c(OC)cc12 | > 100 | 42.1 | > 100 | > 100 | > 100 | 89.4 | > 100 | > 100 | 72.2 | > 100 | > 100 | > 100 | > 100 | > 100 |  | > 100 | > 100 | > 100 | > 100 | > 100
7 | COc1ccc2[nH]c3c(c2c1)CC(=S)N1CCCC(CC3=O)C1 (centres undefined) | > 100 | > 100 | > 100 | > 100 | > 100 | > 100 | > 100 | 92.6 | > 100 | > 100 | > 100 | > 100 | > 100 | > 100 |  | > 100 | > 100 | > 100 | > 100 | > 100
8 | CC(=O)O/C(=C1\C[C@H]2[C@@H]3CC=C4C[C@@H](OC(C)=O)CC[C@]4(C)[C@H]3CC[C@]2(C)C1=O)C(F)(F)F | 37.9 | 32.8 | 17.7 | 20.8 | 31.8 | 40.7 | 18.3 | 18.3 | 21.2 | 16.8 | 27.3 | 31.9 | 24.1 | 47.4 |  | 19.8 | 17.7 | 15.1 | 20.2 | 32.1
9 | Fc1ccc(C(=C2CCN(CCc3ccc4[nH]c(=S)[nH]c4c3)CC2)c2ccc(F)cc2)cc1 | 9.04 | 38.6 | 8.51 | 40.8 | 19.1 | 52.3 | 13.1 | 8.94 | 4.23 | 8.26 | 8.76 | 2.63 | 9.25 | 7.31 |  | > 100 | 11.3 | 2.4 | 19 | 5.11
10 | CC1(C)CC(=O)C(C=NC(=O)c2ccncc2)=C(O)C1 | > 100 | > 100 | > 100 | > 100 | > 100 | > 100 | > 100 | > 100 | > 100 | > 100 | > 100 | > 100 | > 100 | > 100 |  | > 100 | > 100 | > 100 | > 100 | > 100
